Results from PubChem BioAssay AID1259407 (Chemical Carcinogenesis Research Information System (CCRIS), 2018).
Active and inactive are the calls of the source. No rule for the calls is given here.

Tested on: CCRIS mutagenicity, Ames/micronucleus/aberration tests
Experiment: CCRIS mutagenicity studies
[1] = Test System: AMES SALMONELLA TYPHIMURIUM, Strain/Indicator: TA98, Metabolic Activation: NONE, Method: PREINCUBATION
[2] = Test System: AMES SALMONELLA TYPHIMURIUM, Strain/Indicator: TA100, Metabolic Activation: NONE, Method: PREINCUBATION
[3] = Test System: AMES SALMONELLA TYPHIMURIUM, Strain/Indicator: TA1535, Metabolic Activation: NONE, Method: PREINCUBATION
[4] = Test System: AMES SALMONELLA TYPHIMURIUM, Strain/Indicator: TA1537, Metabolic Activation: NONE, Method: PREINCUBATION

Measured: mutagenic call

Nc1ccc(-c2ccc(N)cc2[N+](=O)[O-])c([N+](=O)[O-])c1
active: [1] active; positive | Test System: AMES SALMONELLA TYPHIMURIUM, Strain/Indicator: TA98, Metabolic Activation: RAT, LIVER, S-9, KANECHLOR 500, Method: PREINCUBATION active; positive

O=P(OCCCl)(OCCCl)OCCCl
active: Test System: AMES SALMONELLA TYPHIMURIUM, Strain/Indicator: TA100, Metabolic Activation: RAT, LIVER, S-9, PCB, Method: STANDARD PLATE active; positive | Test System: AMES SALMONELLA TYPHIMURIUM, Strain/Indicator: TA1535, Metabolic Activation: RAT, LIVER, S-9, PCB, Method: STANDARD PLATE active; positive
inactive: End Point: IN VITRO CHROMOSOMAL ABERRATIONS, Test System: CHINESE HAMSTER OVARY CELLS, Metabolic Activation: NONE inactive; negative | End Point: IN VITRO CHROMOSOMAL ABERRATIONS, Test System: CHINESE HAMSTER OVARY CELLS, Metabolic Activation: RAT, LIVER, S-9, AROCLOR 1254 inactive; negative | Test System: AMES SALMONELLA TYPHIMURIUM, Strain/Indicator: TA98, Metabolic Activation: HAMSTER, LIVER, S-9, AROCLOR 1254 (10%), Method: PREINCUBATION inactive; negative | [1] inactive; negative | Test System: AMES SALMONELLA TYPHIMURIUM, Strain/Indicator: TA98, Metabolic Activation: RAT, LIVER, S-9, AROCLOR 1254 (10%), Method: PREINCUBATION inactive; negative | Test System: AMES SALMONELLA TYPHIMURIUM, Strain/Indicator: TA100, Metabolic Activation: HAMSTER, LIVER, S-9, AROCLOR 1254 (10%), Method: PREINCUBATION inactive; negative | [2] inactive; negative | Test System: AMES SALMONELLA TYPHIMURIUM, Strain/Indicator: TA100, Metabolic Activation: RAT, LIVER, S-9, AROCLOR 1254 (10%), Method: PREINCUBATION inactive; negative | Test System: AMES SALMONELLA TYPHIMURIUM, Strain/Indicator: TA1535, Metabolic Activation: HAMSTER, LIVER, S-9, AROCLOR 1254 (10%), Method: PREINCUBATION inactive; negative | [3] inactive; negative | Test System: AMES SALMONELLA TYPHIMURIUM, Strain/Indicator: TA1535, Metabolic Activation: RAT, LIVER, S-9, AROCLOR 1254 (10%), Method: PREINCUBATION inactive; negative | Test System: AMES SALMONELLA TYPHIMURIUM, Strain/Indicator: TA1537, Metabolic Activation: HAMSTER, LIVER, S-9, AROCLOR 1254 (10%), Method: PREINCUBATION inactive; negative | [4] inactive; negative | Test System: AMES SALMONELLA TYPHIMURIUM, Strain/Indicator: TA1537, Metabolic Activation: RAT, LIVER, S-9, AROCLOR 1254 (10%), Method: PREINCUBATION inactive; negative

COc1cc2c(c3oc(=O)c4c(c13)CCC4=O)[C@@]1(O)[C@@H](O2)O[C@@H]2O[C@@H]21
active: Test System: AMES SALMONELLA TYPHIMURIUM, Strain/Indicator: TA100, Metabolic Activation: NONE, Method: MICROSUSPENSION active; positive | Test System: AMES SALMONELLA TYPHIMURIUM, Strain/Indicator: TA100, Metabolic Activation: RAT, LIVER, S-9, AROCLOR 1254, Method: MICROSUSPENSION active; positive

OCCOCCOCCO
inactive: [1] inactive; negative | Test System: AMES SALMONELLA TYPHIMURIUM, Strain/Indicator: TA98, Metabolic Activation: RAT LIVER S-9, PHENOBARBITAL AND BETA-NAPHTHOFLAVONE, Method: PREINCUBATION inactive; negative | [2] inactive; negative | Test System: AMES SALMONELLA TYPHIMURIUM, Strain/Indicator: TA100, Metabolic Activation: RAT LIVER S-9, PHENOBARBITAL AND BETA-NAPHTHOFLAVONE, Method: PREINCUBATION inactive; negative | [3] inactive; negative | Test System: AMES SALMONELLA TYPHIMURIUM, Strain/Indicator: TA1535, Metabolic Activation: RAT LIVER S-9, PHENOBARBITAL AND BETA-NAPHTHOFLAVONE, Method: PREINCUBATION inactive; negative | [4] inactive; negative | Test System: AMES SALMONELLA TYPHIMURIUM, Strain/Indicator: TA1537, Metabolic Activation: RAT LIVER S-9, PHENOBARBITAL AND BETA-NAPHTHOFLAVONE, Method: PREINCUBATION inactive; negative | Test System: AMES SALMONELLA TYPHIMURIUM, Strain/Indicator: TA1538, Metabolic Activation: NONE, Method: PREINCUBATION inactive; negative | Test System: AMES SALMONELLA TYPHIMURIUM, Strain/Indicator: TA1538, Metabolic Activation: RAT LIVER S-9, PHENOBARBITAL AND BETA-NAPHTHOFLAVONE, Method: PREINCUBATION inactive; negative | Test System: E.COLI, Strain/Indicator: WP2UVRA, Metabolic Activation: NONE, Method: PREINCUBATION inactive; negative | Test System: E.COLI, Strain/Indicator: WP2UVRA, Metabolic Activation: RAT LIVER S-9, PHENOBARBITAL AND BETA-NAPHTHOFLAVONE, Method: PREINCUBATION inactive; negative

O=[N+]([O-])c1ccc2c(c1)-c1ccccc1C2
inactive: End Point: IN VITRO CHROMOSOMAL ABERRATIONS, Test System: CHINESE HAMSTER LUNG (CHL) CELLS, Metabolic Activation: NONE inactive; negative
active: End Point: IN VITRO CHROMOSOMAL ABERRATIONS, Test System: CHINESE HAMSTER LUNG (CHL) CELLS, Metabolic Activation: RAT, LIVER, S-9, KC-400 active; positive | Test System: AMES SALMONELLA TYPHIMURIUM, Strain/Indicator: TA98 (1,8-DNP6), Metabolic Activation: NONE, Method: PREINCUBATION active; positive | Test System: AMES SALMONELLA TYPHIMURIUM, Strain/Indicator: TA98(NR), Metabolic Activation: NONE, Method: PREINCUBATION active; positive | Test System: AMES SALMONELLA TYPHIMURIUM, Strain/Indicator: TA98(NR), Metabolic Activation: RAT LIVER S-9 (10%), Method: PREINCUBATION active; positive | Test System: AMES SALMONELLA TYPHIMURIUM, Strain/Indicator: TA98 (NR), Metabolic Activation: RAT LIVER S-9, 3-METHYLCHOLANTHRENE (10%), Method: PREINCUBATION active; positive | Test System: AMES SALMONELLA TYPHIMURIUM, Strain/Indicator: TA98(NR), Metabolic Activation: RAT LIVER S-9, BETA-NAPHTHAFLAVONE (10%), Method: PREINCUBATION active; positive | Test System: AMES SALMONELLA TYPHIMURIUM, Strain/Indicator: TA98(NR), Metabolic Activation: RAT LIVER S-9, PCB (10%), Method: PREINCUBATION active; positive | Test System: AMES SALMONELLA TYPHIMURIUM, Strain/Indicator: TA98(NR), Metabolic Activation: RAT LIVER S-9, PHENOBARBITAL (10%), Method: PREINCUBATION active; positive | [1] active; positive

CC(=O)O[C@]1(C)C(=O)OC/C2=C/CN(C)CC[C@@H](OC(=O)C3(C[C@H]1C)O[C@@H]3C)C2=O (stereo partly drawn)
active: Test System: UDS RAT HEPATOCYTES, Strain/Indicator: THY INCORP, Metabolic Activation: NONE, Method: AUTORADIOGRAPHY active; positive
